What was measured:
CK1ε = CK1ε (Homo sapiens (Human), UniProt P49674); assay: CK1ε kinase assay (Caliper LabChip, fluoresceinated peptide substrate); type: biochemical; settings: 200 pM CK1ε, 50 μM ATP, 1.5 μM peptide substrate, 22 hours room temperature
Method: (§1) CK1ε and CK1δ Kinase Assays
(§2) The kinase assay was performed in V-bottom 384-well plates. […] The reaction was incubated at room temperature for 22 hours and terminated by adding 45 μl of 35 mM EDTA to each sample. […] Compounds were dissolved at 10 mM in dimethylsulfoxide (DMSO) and evaluated at eleven concentrations. IC50 values were derived by non-linear regression analysis.

CK1δ = CK1δ (Homo sapiens (Human), UniProt P48730); assay: CK1δ kinase assay (Caliper LabChip, fluoresceinated peptide substrate); type: biochemical; settings: 200 pM CK1δ, 50 μM ATP, 1.5 μM peptide substrate, 22 hours room temperature
Chain of CK1δ (P48730 whole entry): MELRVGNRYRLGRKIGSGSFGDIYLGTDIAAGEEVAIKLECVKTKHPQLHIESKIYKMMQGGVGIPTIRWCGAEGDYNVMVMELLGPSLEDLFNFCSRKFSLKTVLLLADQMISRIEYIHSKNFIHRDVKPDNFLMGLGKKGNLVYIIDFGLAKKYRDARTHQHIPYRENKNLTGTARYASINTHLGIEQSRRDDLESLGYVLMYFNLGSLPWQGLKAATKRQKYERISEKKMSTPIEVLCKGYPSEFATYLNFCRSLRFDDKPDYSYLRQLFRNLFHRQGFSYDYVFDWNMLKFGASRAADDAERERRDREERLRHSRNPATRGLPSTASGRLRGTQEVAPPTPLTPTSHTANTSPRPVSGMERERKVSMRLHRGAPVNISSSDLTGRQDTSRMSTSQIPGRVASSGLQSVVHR
Method: as §1, §2

Chain of CK1ε (P49674 whole entry): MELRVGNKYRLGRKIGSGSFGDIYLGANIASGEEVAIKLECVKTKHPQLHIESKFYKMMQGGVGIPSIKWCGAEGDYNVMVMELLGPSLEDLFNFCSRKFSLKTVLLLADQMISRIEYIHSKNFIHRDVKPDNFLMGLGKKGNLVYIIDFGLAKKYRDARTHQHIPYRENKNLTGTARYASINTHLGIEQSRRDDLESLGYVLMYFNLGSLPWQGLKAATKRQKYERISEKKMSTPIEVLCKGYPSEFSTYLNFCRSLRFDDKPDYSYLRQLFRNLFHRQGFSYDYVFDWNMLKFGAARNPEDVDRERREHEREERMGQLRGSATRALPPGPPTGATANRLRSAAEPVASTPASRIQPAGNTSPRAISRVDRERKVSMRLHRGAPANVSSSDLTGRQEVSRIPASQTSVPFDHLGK

SMILES | IC50 (CK1ε) [nM] | IC50 (CK1δ) [nM]
Cn1cc(-c2ccc3nc(NC(=O)C4CCC4)cn3n2)c(-c2ccc(F)cc2)n1 [Compound 89, N-(6-(3-(4-fluorophenyl)-1-methyl-1H-pyrazol-4-yl)imidazo[1,2-b]pyridazin-2-yl)cyclobutanecarboxamide] | 25.8 | 7.1
Cn1nc(-c2ccc(F)cc2)c(-c2ccc3nc(NC(=O)c4ccncc4)cn3n2)c1C1CCN(Cc2nccs2)CC1 [Compound 173, N-(6-(3-(4-fluorophenyl)-1-methyl-5-(1-(thiazol-2-ylmethyl)piperidin-4-yl)-1H-pyrazol-4-yl)imidazo[1,2-b]pyridazin-2-yl) isonicotinamide] | 6.4 | 1.5
Cn1cc(-c2ccc3nc(NC(=O)c4cncs4)cn3n2)c(-c2ccc(F)cc2)n1 [Compound 28, N-(6-(3-(4-fluorophenyl)-1-methyl-1H-pyrazol-4-yl)imidazo[1,2-b]pyridazin-2-yl) thiazole-5-carboxamide] | 6.6 | 3.1
Cn1cc(-c2ccc3nc(NC(=O)c4nccs4)cn3n2)c(-c2ccc(F)cc2)n1 [Compound 37, N-(6-(3-(4-fluorophenyl)-1-methyl-1H-pyrazol-4-yl)imidazo[1,2-b]pyridazin-2-yl)thiazole-2-carboxamide] | 116 | 30.5
Cn1cc(-c2ccc3nc(NC(=O)c4ccc(OC(F)F)cc4F)cn3n2)c(-c2ccc(F)cc2)n1 [Compound 58, 4-(difluoromethoxy)-2-fluoro-N-(6-(3-(4-fluorophenyl)-1-methyl-1H-pyrazol-4-yl)imidazo[1,2-b]pyridazin-2-yl)benzamide] | 40.9 | 6.9
COc1ccc(C(=O)Nc2cn3nc(-c4cn(C)nc4-c4ccc(F)cc4)ccc3n2)c(OC)n1 [Compound 75, N-(6-(3-(4-fluorophenyl)-1-methyl-1H-pyrazol-4-yl)imidazo[1,2-b]pyridazin-2-yl)-2,6-dimethoxynicotinamide] | 363 | 41
Cc1nc(C(F)(F)F)ccc1C(=O)Nc1cn2nc(-c3cn(C)nc3-c3ccc(F)cc3)ccc2n1 [Compound 95, N-(6-(3-(4-fluorophenyl)-1-methyl-1H-pyrazol-4-yl)imidazo[1,2-b]pyridazin-2-yl)-2-methyl-6-(trifluoromethyl)nicotinamide] | 17.2 | 6.5
Cn1nc(-c2ccc(F)cc2)c(-c2ccc3nc(NC(=O)c4ccnc(F)c4)cn3n2)c1C1CCN(C[C@@H](O)C(F)(F)F)CC1 [Compound 158, (R)-2-Fluoro-N-(6-(3-(4-fluorophenyl)-1-methyl-5-(1-(3,3,3-trifluoro-2-hydroxypropyl)piperidin-4-yl)-1H-pyrazol-4-yl)imidazo[1,2-b]pyridazin-2-yl)isonicotinamide] | 0.3 | 0.2
Cn1nc(-c2ccc(F)cc2)c(-c2ccc3nc(NC(=O)c4ccnc(N5CCOCC5)c4)cn3n2)c1N1CCN(Cc2ccon2)CC1 [Compound 136, N-(6-(3-(4-Fluorophenyl)-5-(4-(isoxazol-3-ylmethyl)piperazin-1-yl)-1-methyl-1H-pyrazol-4-yl)imidazo[1,2-b]pyridazin-2-yl)-2-morpholinoisonicotinamide] | 12 | 0.8
Cn1nc(-c2ccc(F)cc2)c(-c2ccc3nc(NC(=O)c4ccnc(N5CCOCC5)c4)cn3n2)c1N1CCN(CCCF)CC1 [Compound 139, N-(6-(3-(4-Fluorophenyl)-5-(4-(3-fluoropropyl)piperazin-1-yl)-1-methyl-1H-pyrazol-4-yl)imidazo[1,2-b]pyridazin-2-yl)-2-morpholinoisonicotinamide] | 9.3 | 1.4
Cc1nc(-c2ccncc2)sc1C(=O)Nc1cn2nc(-c3cn(C4CC4)nc3-c3ccc(F)cc3)ccc2n1 [Compound 111, N-(6-(1-cyclopropyl-3-(4-fluorophenyl)-1H-pyrazol-4-yl)imidazo[1,2-b]pyridazin-2-yl)-4-methyl-2-(pyridin-4-yl)thiazole-5-carboxamide] | 35 | 6.2
Cn1nc(-c2ccc(F)cc2)c(-c2ccc3nc(NC(=O)c4ccnc(N5CCOCC5)c4)cn3n2)c1C1CCN(CCC(F)(F)F)CC1 [Compound 161, N-(6-(3-(4-Fluorophenyl)-1-methyl-5-(1-(3,3,3-trifluoropropyl)piperidin-4-yl)-1H-pyrazol-4-yl)imidazo[1,2-b]pyridazin-2-yl)-2-morpholinoisonicotinamide] | 22.9 | 1.7
Cn1nc(-c2ccc(F)cc2)c(-c2ccc3nc(NC(=O)c4cccc(-c5cccnc5)c4)cn3n2)c1C1CCOCC1 [Compound 199, N-(6-(3-(4-Fluorophenyl)-1-methyl-5-(tetrahydro-2H-pyran-4-yl)-1H-pyrazol-4-yl)imidazo[1,2-b]pyridazin-2-yl)-3-(pyridin-3-yl)benzamide] | 1.9 | 0.2
Cn1cc(-c2ccc3nc(NC(=O)C4CCCC4)cn3n2)c(-c2ccc(F)cc2)n1 [Compound 86, N-(6-(3-(4-fluorophenyl)-1-methyl-1H-pyrazol-4-yl)imidazo[1,2-b]pyridazin-2-yl)cyclopentanecarboxamide] | 15.7 | 5.6
Cn1cc(-c2ccc3nc(NC(=O)c4ccncc4F)cn3n2)c(-c2ccc(F)cc2)n1 [Compound 35, 3-fluoro-N-(6-(3-(4-fluorophenyl)-1-methyl-1H-pyrazol-4-yl)imidazo[1,2-b]pyridazin-2-yl)isonicotinamide] | 9.1 | 2.8
Cn1cc(-c2ccc3nc(NC(=O)c4ccc(Cl)cc4F)cn3n2)c(-c2ccc(F)cc2)n1 [Compound 24, 4-chloro-2-fluoro-N-(6-(3-(4-fluorophenyl)-1-methyl-1H-pyrazol-4-yl)imidazo[1,2-b]pyridazin-2-yl)benzamide] | 16.2 | 6.3
Cc1nc(-c2ccncc2)sc1C(=O)Nc1cn2nc(-c3c(-c4ccc(F)cc4)nn(C)c3N3CCOCC3)ccc2n1 [Compound 147, N-(6-(3-(4-fluorophenyl)-1-methyl-5-morpholino-1H-pyrazol-4-yl)imidazo [1,2-b]pyridazin-2-yl)-4-methyl-2-(pyridin-4-yl)thiazole-5-carboxamide] | 7.9 | 0.7
Cn1cc(-c2ccc3nc(NC(=O)c4ccc(C#N)nc4)cn3n2)c(-c2ccc(F)cc2)n1 [Compound 53, 6-cyano-N-(6-(3-(4-fluorophenyl)-1-methyl-1H-pyrazol-4-yl)imidazo[1,2-b]pyridazin-2-yl)nicotinamide] | 21.4 | 5.8
Cn1cc(-c2ccc3nc(NC(=O)c4ccnc(N5CCOCC5)c4)cn3n2)c(-c2ccc(F)cc2)n1 [Compound 69, N-(6-(3-(4-fluorophenyl)-1-methyl-1H-pyrazol-4-yl)imidazo[1,2-b]pyridazin-2-yl)-2-morpholinoisonicotinamide] | 4.8 | 2.3
Cn1cc(-c2ccc3nc(NC(=O)c4ccc(CCN5CCCC5)nc4)cn3n2)c(-c2ccc(F)cc2)n1 [Compound 72, N-(6-(3-(4-fluorophenyl)-1-methyl-1H-pyrazol-4-yl)imidazo[1,2-b]pyridazin-2-yl)-6-(2-(pyrrolidin-1-yl)ethyl)nicotinamide] | 27.8 | 10
